Assay results: patent publication US20210244720A1, “Therapeutic Tyrosine Kinase Inhibitors for Relapsing Multiple Sclerosis (RMS)” (Genzyme Corporation, priority 2020, published 2021)

Tested on: participants with relapsing multiple sclerosis (RMS)
Experiment: Phase 2b study in RMS: safety and tolerability (adverse events, laboratory tests, ECG, vital signs)
Details: for proportion of participants with TEAEs: treatment period
[1] = 5 mg, 12 weeks treatment, n = 33
[2] = 5 mg, BTK inhibitor treatment period, safety population, N = 32
[3] = 5 mg, BTK inhibitor treatment period, safety population, N = 33
[4] = 15 mg, 12 weeks treatment, n = 32
[5] = 15 mg, BTK inhibitor treatment period, safety population, N = 32
[6] = 30 mg, 12 weeks treatment, n = 33
[7] = 30 mg, BTK inhibitor treatment period, safety population, N = 33
[8] = 60 mg, 12 weeks treatment, n = 32
[9] = 60 mg, BTK inhibitor treatment period, safety population, N = 32
[10] = 60 mg, BTK inhibitor treatment period, safety population, N = 33
[11] = 12-week treatment period, 15 mg
[12] = 12-week treatment period, 30 mg
[13] = 12-week treatment period, 60 mg
[14] = All Dose Groups, 12 weeks treatment, N = 130
[15] = All Dose Groups, Weeks 1 to 12, N = 130
[16] = All, BTK inhibitor treatment period, safety population, N = 130

## C=CC(=O)N1CCC[C@@H](n2c(=O)n(-c3ccc(Oc4ccccc4)cc3)c3c(N)nccc32)C1 [the BTK inhibitor, (R)-1-(1-acryloylpiperidin-3-yl)-4-amino-3-(4-phenoxyphenyl)-1H-imidazo[4,5-c]pyridin-2(3H)-one]
[1]
  Accidental overdose, patients n (%): 0
  Alanine aminotransferase increased, patients n (%): 1 (3%)
  Alopecia, patients n (%): 1 (3%)
  Back pain, patients n (%): 1 (3%)
  Gastroenteritis, patients n (%): 1 (3%)
  Headache, patients n (%): 1 (3%)
  Muscle spasticity, patients n (%): 0
  Nasopharyngitis, patients n (%): 1 (3%)
  Oropharyngeal pain, patients n (%): 1 (3%)
  Peripheral edema, patients n (%): 2 (6%)
  Respiratory tract infection, patients n (%): 0
  Upper respiratory tract infection, patients n (%): 2 (6%)
[2]
  Participants with any TEAE, %: (50.0) %
  Participants with any treatment-related TEAE, %: (18.8) %
  Participants with treatment emergent SAE(s), Any class, n(%): 0
  Participants with treatment emergent SAE(s), Multiple sclerosis relapse, n(%): 0
  Participants with treatment emergent SAE(s), NERVOUS SYSTEM DISORDERS, n(%): 0
[3]
  AESI, Alanice aminotransferase increased, n (%): 0
  AESI, Investigations, n (%): 0
  Any AESI, n (%): 0
5 mg, Weeks 1 to 4, N = 16
  AESI, Alanice aminotransferase increased, n (%): 0
  AESI, Investigations, n (%): 0
  Any AESI, n (%): 0
5 mg, Weeks 1 to 4, N = 32
  Participants with any TEAE, %: (25.0) %
  Participants with any treatment-related TEAE, %: (12.5) %
5 mg, Weeks 1 to 4, n = 16
  Any AE, %: (31.3%)
  Any treatment-related AE, %: (12.5%)
5 mg, Weeks 1 to 12, n = 33
  Any AE, %: (57.6) %
  Any treatment-related AE, %: (15.2) %
[4]
  Accidental overdose, patients n (%): 0
  Alanine aminotransferase increased, patients n (%): 0
  Alopecia, patients n (%): 1 (3%)
  Back pain, patients n (%): 1 (3%)
  Gastroenteritis, patients n (%): 0
  Headache, patients n (%): 3 (9%)
  Muscle spasticity, patients n (%): 0
  Nasopharyngitis, patients n (%): 0
  Oropharyngeal pain, patients n (%): 0
  Peripheral edema, patients n (%): 0
  Respiratory tract infection, patients n (%): 1 (3%)
  Upper respiratory tract infection, patients n (%): 2 (6%)
[5]
  AESI, Alanice aminotransferase increased, n (%): 0
  AESI, Investigations, n (%): 0
  Any AESI, n (%): 0
  Participants with any TEAE, %: (56.3) %
  Participants with any treatment-related TEAE, %: (9.4) %
  Participants with treatment emergent SAE(s), Any class, n(%): 0
  Participants with treatment emergent SAE(s), Multiple sclerosis relapse, n(%): 0
  Participants with treatment emergent SAE(s), NERVOUS SYSTEM DISORDERS, n(%): 0
15 mg, Weeks 1 to 4, N = 16
  AESI, Alanice aminotransferase increased, n (%): 0
  AESI, Investigations, n (%): 0
  Any AESI, n (%): 0
15 mg, Weeks 1 to 4, N = 32
  Participants with any TEAE, %: (43.8) %
  Participants with any treatment-related TEAE, %: (3.1) %
15 mg, Weeks 1 to 4, n = 16
  Any AE, %: (18.9%)
15 mg, Weeks 1 to 12, n = 32
  Any AE, %: (53.1) %
  Any treatment-related AE, %: (3.1) %
30 mg group, Week 8 visit
  ALT level of the AESI participant: 105 U/L
30 mg group, within 4 days after Week 8 visit
  ALT level of the AESI participant: 32 U/L
30 mg treatment period
  AESIs (alanine aminotransferase increased >3×ULN): 1
[6]
  Accidental overdose, patients n (%): 0
  Alanine aminotransferase increased, patients n (%): 1 (3%)
  Alopecia, patients n (%): 0
  Back pain, patients n (%): 2 (6%)
  Gastroenteritis, patients n (%): 0
  Headache, patients n (%): 1 (3%)
  Muscle spasticity, patients n (%): 1 (3%)
  Nasopharyngitis, patients n (%): 1 (3%)
  Oropharyngeal pain, patients n (%): 1 (3%)
  Peripheral edema, patients n (%): 0
  Respiratory tract infection, patients n (%): 1 (3%)
  Upper respiratory tract infection, patients n (%): 1 (3%)
[7]
  AESI, Alanice aminotransferase increased, n (%): 1 (3.0)
  AESI, Investigations, n (%): 1 (3.0)
  Any AESI, n (%): 1 (3.0)
  Participants with any TEAE, %: (51.5) %
  Participants with any severe TEAE, %: (3.0) %
  Participants with any treatment emergent SAE, %: (3.0) %
  Participants with any treatment-related TEAE, %: (12.1) %
  Participants with treatment emergent SAE(s), Any class, n(%): 1 (3.0)
  Participants with treatment emergent SAE(s), Multiple sclerosis relapse, n(%): 1 (3.0)
  Participants with treatment emergent SAE(s), NERVOUS SYSTEM DISORDERS, n(%): 1 (3.0)
30 mg, Weeks 1 to 4, N = 16
  AESI, Alanice aminotransferase increased, n (%): 0
  AESI, Investigations, n (%): 0
  Any AESI, n (%): 0
30 mg, Weeks 1 to 4, N = 33
  Participants with any TEAE, %: (42.4) %
  Participants with any treatment-related TEAE, %: (12.1) %
30 mg, Weeks 1 to 4, n = 16
  Any AE, %: (12.5%)
30 mg, Weeks 1 to 12, n = 33
  Any AE, %: (54.5) %
  Any treatment-related AE, %: (12.1) %
60 mg group, Week 4 visit, ULN 34 U/L
  ALT level of the AESI participant: 107 U/L
60 mg group, Week 12
  ALT level of the AESI participant: 28 U/L
60 mg treatment period
  AESIs (alanine aminotransferase increased >3×ULN): 1
[8]
  Accidental overdose, patients %: (9%)
  Accidental overdose, patients n: 3
  Alanine aminotransferase increased, patients %: (3%)
  Alanine aminotransferase increased, patients n: 1
  Alopecia, patients %: (3%)
  Alopecia, patients n: 1
  Back pain, patients n: 0
  Gastroenteritis, patients %: (6%)
  Gastroenteritis, patients n: 2
  Headache, patients %: (13%)
  Headache, patients n: 4
  Muscle spasticity, patients %: (6%)
  Muscle spasticity, patients n: 2
  Nasopharyngitis, patients %: (9%)
  Nasopharyngitis, patients n: 3
  Oropharyngeal pain, patients %: (3%)
  Oropharyngeal pain, patients n: 1
  Peripheral edema, patients %: (6%)
  Peripheral edema, patients n: 2
  Respiratory tract infection, patients %: (3%)
  Respiratory tract infection, patients n: 1
  Upper respiratory tract infection, patients %: (3%)
  Upper respiratory tract infection, patients n: 1
[9]
  AESI, Alanice aminotransferase increased, n (%): 1 (3.1)
  AESI, Investigations, n (%): 1 (3.1)
  Any AESI, n (%): 1 (3.1)
[10]
  Participants with any TEAE, %: (54.5) %
  Participants with any treatment-related TEAE, %: (6.1) %
60 mg, Cohort 1, MS relapse
  treatment-emergent SAE: One
60 mg, Weeks 1 to 4, N = 16
  AESI, Alanice aminotransferase increased, n (%): 0
  AESI, Investigations, n (%): 0
  Any AESI, n (%): 0
60 mg, Weeks 1 to 4, N = 33
  Participants with any TEAE, %: (42.4) %
  Participants with any treatment-related TEAE, %: (9.1) %
60 mg, Weeks 1 to 4, n = 16
  Any AE, %: (31.3%)
  Any treatment-related AE, %: (6.3%)
60 mg, Weeks 1 to 12, n = 32
  Any AE, %: (50.0) %
  Any treatment-related AE, %: (21.9) %
  Serious AE, %: (3.1) %
5-60 mg
  correlation between dose administered and number of TEAEs: no direct correlation
12-week treatment period, 5 mg
  TEAE alanine aminotransferase increased: 1
  TEAE alopecia: 1
  TEAE back pain: 1
  TEAE gastroenteritis: 1
  TEAE headache: 1
  TEAE nasopharyngitis: 1
  TEAE oedema peripheral: 2
  TEAE oropharyngeal pain: 1
  TEAE upper respiratory tract infection: 2
[11]
  TEAE alopecia: 1
  TEAE back pain: 1
  TEAE headache: 3
  TEAE respiratory tract infection: 1
  TEAE upper respiratory tract infection: 2
[12]
  TEAE alanine aminotransferase increased: 1
  TEAE back pain: 2
  TEAE headache: 1
  TEAE muscle spasticity: 1
  TEAE nasopharyngitis: 1
  TEAE oropharyngeal pain: 1
  TEAE respiratory tract infection: 1
  TEAE upper respiratory tract infection: 1
[13]
  TEAE accidental overdose: 3
  TEAE alanine aminotransferase increased: 1
  TEAE alopecia: 1
  TEAE gastroenteritis: 2
  TEAE headache: 4
  TEAE muscle spasticity: 2
  TEAE nasopharyngitis: 3
  TEAE oedema peripheral: 2
  TEAE oropharyngeal pain: 1
  TEAE respiratory tract infection: 1
  TEAE upper respiratory tract infection: 1
12 weeks of treatment
  tolerability: well-tolerated
[14]
  Accidental overdose, patients n (%): 3 (2%)
  Alanine aminotransferase increased, patients n (%): 3 (2%)
  Alopecia, patients n (%): 3 (2%)
  Back pain, patients n (%): 4 (3%)
  Gastroenteritis, patients n (%): 3 (2%)
  Headache, patients n (%): 9 (7%)
  Muscle spasticity, patients n (%): 3 (2%)
  Nasopharyngitis, patients n (%): 5 (4%)
  Oropharyngeal pain, patients n (%): 3 (2%)
  Peripheral edema, patients n (%): 4 (3%)
  Respiratory tract infection, patients n (%): 3 (2%)
  Upper respiratory tract infection, patients n (%): 6 (5%)
[15]
  Any AE, %: (53.8) %
  Any treatment-related AE, %: (13.1) %
  Serious AE, %: (0.8) %
[16]
  AESI, Alanice aminotransferase increased, n (%): 2 (1.5)
  AESI, Investigations, n (%): 2 (1.5)
  Any AESI, n (%): 2 (1.5)
  Participants with any TEAE, %: (53.1) %
  Participants with any severe TEAE, %: (0.8) %
  Participants with any treatment emergent SAE, %: (0.8) %
  Participants with any treatment-related TEAE, %: (11.5) %
  Participants with treatment emergent SAE(s), Any class, n(%): 1 (0.8)
  Participants with treatment emergent SAE(s), Multiple sclerosis relapse, n(%): 1 (0.8)
  Participants with treatment emergent SAE(s), NERVOUS SYSTEM DISORDERS, n(%): 1 (0.8)
All, Weeks 1 to 4, N = 130
  Participants with any TEAE, %: (38.5) %
  Participants with any treatment-related TEAE, %: (9.2) %
Weeks 1 to 4, 5 mg
  TEAE headache: 3 cases
  TEAE nausea: 2 cases
  proportion of participants who experienced TEAEs: 31.3%
Weeks 1 to 4, 15 mg
  TEAE headache: 2 cases
  proportion of participants who experienced TEAEs: 18.8%
Weeks 1 to 4, 30 mg
  TEAE nausea: 1 cases
  proportion of participants who experienced TEAEs: 12.5%
Weeks 1 to 4, 60 mg
  TEAE headache: 1 cases
  proportion of participants who experienced TEAEs: 31.3%
Weeks 1 to 4, each treatment group
  TEAE upper respiratory tract infection: 1 case
All dose groups
  TEAEs leading to permanent treatment discontinuation: no TEAEs leading to permanent treatment discontinuation
  intensity of TEAEs: mild or moderate intensity except for one severe TEAE
Multiple treatment groups
  PCSAs related to vital signs, labs and ECGs: no dose relationship
5 mg
  proportion of participants with TEAEs: 57.6%
15 mg
  proportion of participants with TEAEs: 53.1%
30 mg
  proportion of participants with TEAEs: 54.5%
60 mg
  proportion of participants with TEAEs: 50.0%
Whole study
  AESIs (alanine aminotransferase increased >3×ULN): two
  deaths: No deaths
